US20250011352A1, “SOLID FORMS” (priority 2023, published 2025)
Counter-ions that a name gives are not always drawn.

experiment: Dynamic Vapor Sorption (DVS) hygroscopicity; assay type: physicochemical; conditions: from 0 to 90% RH at 25° C.
Protocol: Dynamic Vapor Sorption (DVS) was used to study hygroscopicity on Model Q5000 SA (TA Instruments, New Castle, DE). A sample (1-10 mg) was placed in an aluminum pan and loaded on the sample side of the twin pan balance. The water sorption and desorption were studied as a function of relative humidity (RH) at 25° C. in 10% RH increments from 0% RH to 90% RH and then back to 0%. […] Data analysis was performed using Universal Analysis 2000 Version 4.7A (TA Instruments, New Castle, DE).

| Compound | water uptake (DVS) |
| --- | --- |
| Cc1cc(CC(=O)O)c(C(C)(C)CC(=O)N(c2nn(CC(F)(F)F)c3c(-c4ccc(C#CC(C)(C)S(C)(=O)=O)nc4[C@H](Cc4cc(F)cc(F)c4)NC(=O)Cn4nc(C(F)(F)F)c5c4C(F)(F)[C@@H]4C[C@H]54)ccc(Cl)c23)S(C)(=O)=O)c(OP(=O)(O)O)c1 [Compound 1 maleate] | about 2.5% |
| Cc1cc(CC(=O)O)c(C(C)(C)CC(=O)N(c2nn(CC(F)(F)F)c3c(-c4ccc(C#CC(C)(C)S(C)(=O)=O)nc4[C@H](Cc4cc(F)cc(F)c4)NC(=O)Cn4nc(C(F)(F)F)c5c4C(F)(F)[C@@H]4C[C@H]54)ccc(Cl)c23)S(C)(=O)=O)c(OP(=O)(O)O)c1 [Compound 1 succinate] | about 1.7% |
| Cc1cc(CC(=O)O)c(C(C)(C)CC(=O)N(c2nn(CC(F)(F)F)c3c(-c4ccc(C#CC(C)(C)S(C)(=O)=O)nc4[C@H](Cc4cc(F)cc(F)c4)NC(=O)Cn4nc(C(F)(F)F)c5c4C(F)(F)[C@@H]4C[C@H]54)ccc(Cl)c23)S(C)(=O)=O)c(OP(=O)(O)O)c1 [Compound 1, Material A] | about 4.6% |
| Cc1cc(CC(=O)O)c(C(C)(C)CC(=O)N(c2nn(CC(F)(F)F)c3c(-c4ccc(C#CC(C)(C)S(C)(=O)=O)nc4[C@H](Cc4cc(F)cc(F)c4)NC(=O)Cn4nc(C(F)(F)F)c5c4C(F)(F)[C@@H]4C[C@H]54)ccc(Cl)c23)S(C)(=O)=O)c(OP(=O)(O)O)c1 [Compound 1, crystalline Form III] | about 1.6% |
| Cc1cc(CC(=O)O)c(C(C)(C)CC(=O)N(c2nn(CC(F)(F)F)c3c(-c4ccc(C#CC(C)(C)S(C)(=O)=O)nc4[C@H](Cc4cc(F)cc(F)c4)NC(=O)Cn4nc(C(F)(F)F)c5c4C(F)(F)[C@@H]4C[C@H]54)ccc(Cl)c23)S(C)(=O)=O)c(OP(=O)(O)O)c1 [Compound 1, crystalline Form II] | about 1% |
| Cc1cc(CC(=O)O)c(C(C)(C)CC(=O)N(c2nn(CC(F)(F)F)c3c(-c4ccc(C#CC(C)(C)S(C)(=O)=O)nc4[C@H](Cc4cc(F)cc(F)c4)NC(=O)Cn4nc(C(F)(F)F)c5c4C(F)(F)[C@@H]4C[C@H]54)ccc(Cl)c23)S(C)(=O)=O)c(OP(=O)(O)O)c1 [Compound 1, crystalline Form I] | about 4% |
| Cc1cc(CC(=O)OC(C)(C)C)c(C(C)(C)CC(=O)N(c2nn(CC(F)(F)F)c3c(-c4ccc(C#CC(C)(C)S(C)(=O)=O)nc4[C@H](Cc4cc(F)cc(F)c4)NC(=O)Cn4nc(C(F)(F)F)c5c4C(F)(F)[C@@H]4C[C@H]54)ccc(Cl)c23)S(C)(=O)=O)c(OP(=O)(OC(C)(C)C)OC(C)(C)C)c1 [Compound 2, crystalline Form I] | about 2.7% |

experiment: Atropisomer interconversion detected by 19F-NMR in deuterated DMSO; assay type: physicochemical; conditions: deuterated DMSO solution, deuterated DMSO at 25° C.; read-out: half-life of conversion from the major to the minor atropisomer for the biaryl rotation (converted)
Protocol: Compound 1 has two restricted rotational axes, resulting in 4 atropisomers (see FIG. 1) that may be detected by ^19F-NMR.
^19F Nuclear Magnetic Resonance spectra were collected on a Varian 400-MR 400 MHz instrument with 7620AS sample changer. Some of the parameters were adjusted as follows: number of scans: 1; spin: 0 (off); steady state scans: 0 (off). Samples were prepared as a solution of 20 mg in 0.75 mL of dimethyl sulfoxide-d6. The time from solvent addition to end of data acquisition should be ≤5 minutes. Off-line analysis was conducted using MNova software.

| Compound | half-life at 26.7 mg/mL |
| --- | --- |
| Cc1cc(CC(=O)O)c(C(C)(C)CC(=O)N(c2nn(CC(F)(F)F)c3c(-c4ccc(C#CC(C)(C)S(C)(=O)=O)nc4[C@H](Cc4cc(F)cc(F)c4)NC(=O)Cn4nc(C(F)(F)F)c5c4C(F)(F)[C@@H]4C[C@H]54)ccc(Cl)c23)S(C)(=O)=O)c(OP(=O)(O)O)c1 [Compound 1, 2-(2-(4-(N-(4-chloro-7-(2-((S)-1-(2-((3bS,4aR)-5,5-difluoro-3-(trifluoromethyl)-3b,4,4a,5-tetrahydro-1H-cyclopropa[3,4]cyclopenta[1,2-c]pyrazol-1-yl)acetamido)-2-(3,5-difluorophenyl)ethyl)-6-(3-methyl-3-(methylsulfonyl)but-1-yn-1-yl)pyridin-3-yl)-1-(2,2,2-trifluoroethyl)-1H-indazol-3-yl)methylsulfonamido)-2-methyl-4-oxobutan-2-yl)-5-methyl-3-(phosphonooxy)phenyl)acetic acid] | ~71.6 h |

same assay, conditions: deuterated DMSO solution, deuterated DMSO at 25° C.; read-out: half-life of interconversion at the 2nd rotational axis

| Compound | half-life at 26.7 mg/mL |
| --- | --- |
| Cc1cc(CC(=O)O)c(C(C)(C)CC(=O)N(c2nn(CC(F)(F)F)c3c(-c4ccc(C#CC(C)(C)S(C)(=O)=O)nc4[C@H](Cc4cc(F)cc(F)c4)NC(=O)Cn4nc(C(F)(F)F)c5c4C(F)(F)[C@@H]4C[C@H]54)ccc(Cl)c23)S(C)(=O)=O)c(OP(=O)(O)O)c1 [Compound 1, 2-(2-(4-(N-(4-chloro-7-(2-((S)-1-(2-((3bS,4aR)-5,5-difluoro-3-(trifluoromethyl)-3b,4,4a,5-tetrahydro-1H-cyclopropa[3,4]cyclopenta[1,2-c]pyrazol-1-yl)acetamido)-2-(3,5-difluorophenyl)ethyl)-6-(3-methyl-3-(methylsulfonyl)but-1-yn-1-yl)pyridin-3-yl)-1-(2,2,2-trifluoroethyl)-1H-indazol-3-yl)methylsulfonamido)-2-methyl-4-oxobutan-2-yl)-5-methyl-3-(phosphonooxy)phenyl)acetic acid] | ~0.117 h |
